The PolyMetriX glass transition set
± gives the standard deviation of the reports.

glass transition temperature [°C]	SMILES
276.00	*c1ccc([Si](c2ccccc2)(c2ccccc2)c2ccc(-c3nnc(-c4ccc(-c5nnc(*)o5)o4)o3)cc2)cc1 (repeat unit)
62.00	*CCCCCCCCCOC(=O)Nc1ccc(C)c(NC(=O)O*)c1 (repeat unit)
104.00	*O[Si](C)(C)O[Si](C)(C)C#Cc1ccc(C#C[Si](*)(C)C)cc1 (repeat unit)
-1.00	*CCCCCCCCCCCCC(c1ccc(O)cc1)C(*)c1ccc(O)cc1C (repeat unit)
122.00	*Oc1ccc(CNC(=O)c2ccc(C(=O)NCc3ccc(OC4COC5C(*)COC45)cc3)cc2)cc1 (repeat unit)
60.00	*Oc1cc(OC(=O)c2ccc(OCC(C)CC)cc2)c(OC(=O)CCCC(*)=O)cc1OC(=O)c1ccc(OCC(C)CC)cc1 (repeat unit)
152.00	*CCN(CCOC(=O)c1ccc(C(=O)O*)c(OCCC)c1)c1ccc(/N=N/c2ccc(-c3nc4cc([N+](=O)[O-])ccc4[nH]3)cc2)cc1 (repeat unit)
32.50	*CC(OCCCC)C(C(=O)OC)C(*)C(=O)OC (repeat unit)
295.50 ± 11	*c1ccc2c(c1)C(=O)N(c1ccc(Oc3ccc(N4C(=O)c5ccc(C(*)(C(F)(F)F)C(F)(F)F)cc5C4=O)cc3)cc1)C2=O (repeat unit)
290.00	*c1ccc(-c2ccc(-c3nc4cc(Oc5ccc(NC(=O)c6ccc7c(c6)C(=O)N(c6ccc(C(c8ccc(N9C(=O)c%10ccc(C(=O)Nc%11ccc(Oc%12ccc%13nc(-c%14ccccc%14)c(*)nc%13c%12)cc%11)cc%10C9=O)cc8)(C(F)(F)F)C(F)(F)F)cc6)C7=O)cc5)ccc4nc3-c3ccccc3)cc2)cc1 (repeat unit)
170.00	*Oc1ccc(C(c2ccccc2)c2ccc(OC(*)=O)cc2)cc1 (repeat unit)
94.00	*c1nc(-c2ccccc2)nc(N(CCCCN(*)c2ccccc2)c2ccccc2)n1 (repeat unit)
36.00	*Oc1ccc(CC(NC(=O)Cc2ccc(OC(=O)CCCCC(*)=O)cc2)C(=O)OCCCCCC)cc1 (repeat unit)
148.00	*c1ccc(-c2ccc(-c3ccc(-c4ccc(N(*)c5ccc(C)cc5)cc4)c4c(C)ccc(C)c34)c3c(C)ccc(C)c23)cc1 (repeat unit)
96.00	*Oc1ccc(OC(=O)c2cc(OCCCCCCCCCCCC)c(C(*)=O)cc2OCCCCCCCCCCCC)cc1-c1ccccc1 (repeat unit)
130.00	*Nc1ccc(CC(C)(C)NC(=O)CCCCC(*)=O)cc1 (repeat unit)
403.00	*c1ccc2cc(-c3nc4ccc(-c5ccc6nc(*)[nH]c6c5)cc4[nH]3)ccc2c1 (repeat unit)
151.00	*Oc1ccc(Oc2ccc(C(=O)c3ccc(*)cc3)cc2)cc1C (repeat unit)
200.00	*C(=O)Oc1ccc(C(C)(C)c2ccc(OC(=O)c3ccc4c(c3)C(=O)N(c3ccc(Oc5ccc(N6C(=O)c7ccc(*)cc7C6=O)cc5)cc3)C4=O)cc2)cc1 (repeat unit)
280.50	*c1ccc(Oc2ccc(S(=O)(=O)c3ccc(Oc4ccc(-c5c6c(c(*)c7ccccc57)C(=O)N(c5cccc(C(F)(F)F)c5)C6=O)cc4)cc3)cc2)cc1 (repeat unit)
210.00	*Oc1cccc(NC(=O)c2cc(C(=O)Nc3ccc(*)cc3)cc(C(F)(F)C(F)(F)C(F)(F)C(F)(F)C(F)(F)C(F)(F)C(F)(F)C(F)(F)F)c2)c1 (repeat unit)
47.50	*CCCCCOC(=O)c1ccc(-c2ccc(C(=O)O*)cc2)cc1 (repeat unit)
250.00	*C(=O)c1ccc(Oc2c(C)cc(-c3cc(C)c(Oc4ccc(C(=O)c5ccc6nc(*)ccc6c5)cc4)c(C)c3C)c(C)c2C)cc1 (repeat unit)
265.00	*c1ccc2c(c1)C(=O)N(C1CCC(CC3CCC(N4C(=O)c5ccc(C(*)(C(F)(F)F)C(F)(F)F)cc5C4=O)CC3)CC1)C2=O (repeat unit)
420.00	*c1ccc2c(c1)C(=O)N(c1c(C)c(C)c(N3C(=O)c4ccc(C(*)(C(F)(F)F)C(F)(F)F)cc4C3=O)c(C)c1C)C2=O (repeat unit)
56.50	*/C=C/C1CC(*)C2C(=O)N(CCCCCCCC)C(=O)C12 (repeat unit)

glass transition temperature [°C]	SMILES
239.00	*c1ccc(Oc2ccc(N3C(=O)c4cccc(Oc5ccc(Oc6ccc(Oc7cccc8c7C(=O)N(*)C8=O)cc6)cc5)c4C3=O)cc2)cc1 (repeat unit)
8.00	*O[Si](*)(C)CCCCCCOc1ccc(C(=O)Oc2ccc(C#N)cc2)cc1 (repeat unit)
334.00	*c1ccc(Oc2ccc(-c3cnc4cc(-c5ccc6nc(*)cnc6c5)ccc4n3)cc2)cc1 (repeat unit)
-4.30	*c1cc(-c2ccc(C(=C3C=C(C(C)(C)C)C(=O)C(C(C)(C)C)=C3)c3cc(C(C)(C)C)c(OC(C)=O)c(C(C)(C)C)c3)cc2)c(*)s1 (repeat unit)
202.00	*c1ccc(OC(=O)Nc2ccc(-c3ccc(NC(=O)Oc4ccc(-c5nc(-c6ccc([N+](=O)[O-])cc6)[nH]c5*)cc4)cc3OC)c(OC)c2)cc1 (repeat unit)
126.00	*CC(COc1ccc(C(C)(c2ccccc2)c2ccc(O*)cc2)cc1)OC(=O)c1ccccc1 (repeat unit)
22.50	*c1cc(-c2sc(-c3cc(CCCCCCCCCC)c(*)s3)cc2CCCCCCCCCC)c2cccccc1-2 (repeat unit)
-16.00	*O[Si](C)(C)O[Si](C)(C)O[Si](C)(C)O[Si](C)(C)Oc1c(C)cc(-c2cc(C)c(*)c(C)c2)cc1C (repeat unit)
129.50	*CCCCCCCOc1ccc(-c2ccc(O*)c3ccccc23)c2ccccc12 (repeat unit)
122.00	*/C=C/c1cc(OCC(CC)CCCC)c(*)cc1-c1ccc(F)c(C(F)(F)F)c1 (repeat unit)
85.00	*CC(*)(C)C(=O)OC(COc1ccc(-c2ccccc2)cc1)COc1ccc(-c2ccccc2)cc1 (repeat unit)
-43.00	*CC(COC(F)(C(F)(F)F)C(F)(F)F)O* (repeat unit)
280.00	*c1ccc2c(c1)C(=O)N(c1c(C)cc(C)c(C(=O)c3cccc(N4C(=O)c5ccc(C(*)(C(F)(F)F)C(F)(F)F)cc5C4=O)c3)c1C)C2=O (repeat unit)
-4.00	*O[Si](*)(C)CC[Si](C)(C)O[Si](C)(C)CCCOc1cc(OC(=O)c2ccc(OCCCC)cc2)ccc1/N=N/c1ccc(OCCCC)cc1 (repeat unit)
45.00	*c1ccc(-c2ccc([Si](C)(C)[Si](*)(C)C)s2)s1 (repeat unit)
76.00	*OC(=O)C(Cc1ccccc1)NC(=O)CCCCCCCCCCC(=O)NC(Cc1ccccc1)C(=O)OC1COC2C(*)COC12 (repeat unit)
353.50	*c1ccc2c(c1)C(=O)N(c1cccc(N3C(=O)c4ccc(C(*)(C(F)(F)F)C(F)(F)F)cc4C3=O)c1C)C2=O (repeat unit)
324.00	*c1cc(C(=O)Nc2ccc(-c3nnc(*)o3)cc2)cc(N2C(=O)c3ccccc3C2=O)c1 (repeat unit)
126.00	*CC(*)(C)C(=O)OCCN(CC)c1ccc(/N=N/c2ccc([N+](=O)[O-])cc2)cc1 (repeat unit)
147.00	*/C=C/c1ccc(-c2nnc(-c3ccc(/C=C/c4ccc5c(c4)c4cc(*)ccc4n5CCCCCCCC)cc3)n2-c2ccccc2)cc1 (repeat unit)
180.00	*CCOC(=O)c1ccc(-c2ccc(-c3ccc(C(=O)O*)cc3)cc2)cc1 (repeat unit)
43.00	*CC(*)(C)C(=O)OCCCCCC(=O)Oc1ccc(OC(=O)c2ccc(OCC)cc2)cc1 (repeat unit)
264.00	*CC(=O)Nc1cccc2c(NC(=O)COc3ccc4ccccc4c3Sc3c(O*)ccc4ccccc34)cccc12 (repeat unit)
26.40	*c1ccc(-c2sc(-c3ccc(-c4cc(SCCCC)c(*)s4)cc3)cc2SCCCC)cc1 (repeat unit)
254.00 ± 15	*c1ccc(Oc2ccc(N3C(=O)c4cccc(Oc5ccc(Oc6cccc7c6C(=O)N(*)C7=O)cc5)c4C3=O)cc2)cc1 (repeat unit)
373.00	*c1ccc(C2(c3ccc(N4C(=O)c5ccc(Oc6ccc7c(c6)C(=O)N(*)C7=O)cc5C4=O)cc3)c3ccccc3-c3ccccc32)cc1 (repeat unit)

SMILES	glass transition temperature [°C]
*=NP(=NP(=NC(=*)Oc1ccc(Br)cc1)(Oc1ccc(Br)cc1)Oc1ccc(Br)cc1)(Oc1ccc(Br)cc1)Oc1ccc(Br)cc1 (repeat unit)	45.00
*CCSS* (repeat unit)	-27.00
*NC(CCC(=O)OCCCCC)C(*)=O (repeat unit)	-20.00
*Oc1ccc(-c2ccc(OC(=O)Nc3cccc(P(=O)(c4ccccc4)c4cccc(NC(*)=O)c4)c3)cc2)cc1 (repeat unit)	72.00
*Nc1ccc(NC(=O)c2ccc(P(=O)(c3ccccc3)c3ccc(C(*)=O)cc3)cc2)cc1 (repeat unit)	252.00
*OC(COC(*)=O)COC(C)(C)C (repeat unit)	18.00
*CC(*)c1ccc([Si](C)(C)C)cc1 (repeat unit)	136.00
*/C(C)=C(/*)[Si](C)(C)C[Si](C)(C)C (repeat unit)	200.00
*CCCCCCCCCNC(=O)N* (repeat unit)	130.00
*CCCCCNC(=O)CC(=O)N* (repeat unit)	65.00
*CC(*)Cc1ccccc1 (repeat unit)	70.00
*CC(CS(C)(=O)=O)O* (repeat unit)	85.00
*CC(*)OC(=O)/C=C/c1ccccc1 (repeat unit)	127.00
*CC(*)(C)C(=O)OCCOCCO (repeat unit)	20.00
*CC(*)CCc1ccccc1 (repeat unit)	10.00
